Usually inhibition stands for the change of the read-out against control, counted positive when it falls. The term IC50 denotes the point on the concentration scale where inhibition reaches its midpoint.

Activity calls are given as the source filed them. The rule behind the calls is not given here.

For series [1], the system named is MCF7. As to the kind of experiment: Induction of ROS production in human MCF7 cells incubated for 3 to 24 hrs by immunofluorescence analysis. The series is classed as functional, cell-based. As to conditions: time 3-24 hrs.
In series [2] the test system is MCF7. As to the kind of experiment: Synergistic antiproliferative activity against human MCF7 cells at 0.1 to 10000 nM incubated for 5 days in presence of Ribociclib by MTT assay. In kind it is functional, cell-based. As to conditions: dose 0.1-10000 nM, time 5.0 day. A general note: Formazan colour is commonly taken as a measure of viable cells.
Series [3] deals with Ishikawa. Put plainly: Antiproliferative activity against human Ishikawa cells at 20 uM incubated for 3 days by MTT assay relative to control. The series is classed as functional. As to conditions: 72 h, time 3 day.
Series [4] concerns MCF7. Put plainly: Induction of cell cycle arrest at G0/G1 phase in human MCF7 cells at 10 uM incubated for 24 hrs by PI/RNase staining based flow cytometry (reference value: 53.5 +/- 1.96 %). The series is classed as functional. For orientation: A flow cytometer gives signals particle by particle.
Series [5] deals with MCF7. As to the kind of experiment: Antiproliferative activity against human MCF7 cells incubated for 5 days by MTT assay. The series is classed as functional, cell-based. The following applies: MCF7, 120 h.
Series [6] has as its system Uterus. Put plainly: Effect on immature Sprague-Dawley rat uterus assessed as reduction in uterine wet weight at 2 mg/kg, sc qd for 2 days by H and E staining based analysis. The following applies: time 2.0 day. In kind it is functional, organism-based.
Series [7] has as its system MCF7. Put plainly: Induction of immunogenic cell death in human MCF7 cells assessed as HMGB1 release from nucleus at 10 uM by FITC staining based flow cytometry. In kind it is functional.
The nature of series [8]: Toxicity in nude mouse model xenografted with human MCF7 cells assessed as morphological change in heart at 60 mg/kg, po administered daily via gavage for 30 days by H and E staining based analysis. The series is classed as organism-based. As to conditions: in vivo, 720 h, time 30 day.
For series [9], the system named is MCF7. As to the kind of experiment: Induction of endoplasmic reticulum stress effect in human MCF7 cells assessed as change in ATF4 level at 10 uM incubated for 3 to 24 hrs by Western blot analysis. In kind it is functional, cell-based. The following applies: time 3-24 hrs. (In general: A western blot detects proteins with antibodies after separation by electrophoresis.)

Series [10] concerns MCF7. Put plainly: Induction of endoplasmic reticulum stress effect in human MCF7 cells assessed as change in CHOP level at 10 uM incubated for 24 hrs by immunofluorescence based analysis. The series is classed as functional, cell-based.
Series [11] in a line: Toxicity in nude mouse model xenografted with human MCF7 cells assessed as body weight loss at 60 mg/kg, po administered daily via gavage for 30 days. As to conditions: in vivo, 720 h, time 30 day. The series is classed as organism-based.
Series [12] relates to MCF7. As to the kind of experiment: Induction of immunogenic cell death in human MCF7 cells assessed as CRT translocation at 10 uM by Western blot analysis. In kind it is functional, cell-based.
Series [13] addresses T1, Estrogen receptor (Homo sapiens) (UniProt P03372).
T1 sequence (whole entry): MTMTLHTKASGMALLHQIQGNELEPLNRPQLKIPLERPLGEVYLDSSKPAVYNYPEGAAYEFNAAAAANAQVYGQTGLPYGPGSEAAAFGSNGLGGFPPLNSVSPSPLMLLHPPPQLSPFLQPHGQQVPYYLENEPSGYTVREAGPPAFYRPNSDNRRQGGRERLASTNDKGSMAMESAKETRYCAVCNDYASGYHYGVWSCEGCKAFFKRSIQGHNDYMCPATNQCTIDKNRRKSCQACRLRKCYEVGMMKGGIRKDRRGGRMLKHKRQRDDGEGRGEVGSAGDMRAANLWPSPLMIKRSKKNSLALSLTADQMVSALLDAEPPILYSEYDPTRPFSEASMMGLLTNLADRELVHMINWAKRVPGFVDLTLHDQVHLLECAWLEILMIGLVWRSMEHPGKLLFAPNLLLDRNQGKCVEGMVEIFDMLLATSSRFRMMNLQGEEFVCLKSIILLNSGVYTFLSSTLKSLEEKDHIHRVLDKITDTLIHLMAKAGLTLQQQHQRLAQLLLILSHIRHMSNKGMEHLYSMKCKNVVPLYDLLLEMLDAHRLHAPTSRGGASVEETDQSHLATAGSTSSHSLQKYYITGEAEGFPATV
Put plainly: Induction of estrogen receptor degradation in human MCF7 cells expressing ERE-luciferase at 10 uM incubated for 24 hrs by luminescence based analysis. In kind it is cell-based.

Series [14] has as its target T1, Estrogen receptor (Homo sapiens). As to the kind of experiment: Induction of estrogen receptor degradation in human MCF7 cells at 10 uM by fluorescence microscopy. In kind it is cell-based.
The nature of series [15]: Toxicity in nude mouse model xenografted with human MCF7 cells assessed as morphological change in kidney at 60 mg/kg, po administered daily via gavage for 30 days by H and E staining based analysis. In kind it is organism-based. As to conditions: in vivo, 720 h, time 30 day.
Series [16] concerns MCF7. Put plainly: Antitumor activity against human MCF7 cells xenografted in nude mouse model assessed as tumor growth inhibition at 60 mg/kg, po administered daily via gavage for 30 days. In kind it is functional, organism-based. The following applies: time 30.0 day.
A short description of series [17]: Toxicity in nude mouse model xenografted with human MCF7 cells assessed as morphological change in spleen at 60 mg/kg, po administered daily via gavage for 30 days by H and E staining based analysis. The series is classed as organism-based. As to conditions: in vivo, 720 h, time 30 day.
For series [18], the system named is MCF7. As to the kind of experiment: Antitumor activity against human MCF7 cells xenografted in nude mouse model assessed as reduction in PR level at 60 mg/kg, po administered daily via gavage for 30 days in presence of ribociclib by IHC analysis. In kind it is functional, organism-based. As to conditions: time 30.0 day.
The subject of series [19] is MCF7. Put plainly: Induction of immunogenic cell death in human MCF7 cells assessed as HMGB1 release from nucleus at 10 uM by Western blot analysis. The series is classed as functional, cell-based.
Series [20] addresses T1, Estrogen receptor (Homo sapiens). As to the kind of experiment: Induction of estrogen receptor degradation in MG-132-treated human MCF7 cells at 10 uM incubated for 4 to 6 hrs by Western blot analysis. The series is classed as cell-based. As to conditions: time 4-6 hrs.
The subject of series [21] is MCF7. Put plainly: Induction of immunogenic cell death in human MCF7 cells assessed as HMGB1 release from nucleus at 10 uM by fluorescence microscopy. In kind it is functional, cell-based.
In series [22] the test system is MCF7. As to the kind of experiment: Antitumor activity against human MCF7 cells xenografted in nude mouse model at 60 mg/kg, po administered daily via gavage for 30 days in presence of ribociclib. The series is classed as functional, organism-based. As to conditions: time 30.0 day.
The test system of series [23] is MCF7. Put plainly: Induction of endoplasmic reticulum stress effect in human MCF7 cells assessed as change in calnexin level at 10 uM incubated for 24 hrs by immunofluorescence based analysis. In kind it is functional, cell-based.
The test system of series [24] is MCF7. As to the kind of experiment: Induction of endoplasmic reticulum stress effect in human MCF7 cells assessed as change in calnexin level at 10 uM incubated for 3 to 24 hrs by Western blot analysis. The series is classed as functional, cell-based. The following applies: time 3-24 hrs.
Series [25] relates to MCF7. As to the kind of experiment: Antitumor activity against human MCF7 cells xenografted in nude mouse model assessed as reduction in ER level at 60 mg/kg, po administered daily via gavage for 30 days in presence of ribociclib by IHC analysis. The series is classed as functional, organism-based. The following applies: time 30.0 day.
Series [26] deals with MCF7. As to the kind of experiment: Induction of endoplasmic reticulum stress effect in human MCF7 cells assessed as change in GRP78 level at 10 uM incubated for 3 to 24 hrs by Western blot analysis. In kind it is functional, cell-based. The following applies: time 3-24 hrs.
In series [27] the test system is MCF7. As to the kind of experiment: Induction of immunogenic cell death in human MCF7 cells assessed as CRT translocation at 10 uM by FITC staining based flow cytometry. In kind it is functional.
Series [28] is described as follows: Toxicity in nude mouse model xenografted with human MCF7 cells assessed as morphological change in liver at 60 mg/kg, po administered daily via gavage for 30 days by H and E staining based analysis. The series is classed as organism-based. The following applies: in vivo, 720 h, time 30 day.
The test system of series [29] is MCF7. As to the kind of experiment: Induction of ROS production in human MCF7 cells measured after 6 to 24 hrs by flow cytometry. In kind it is functional, cell-based. The following applies: time 6-24 hrs.
In series [30] the target is T1, Estrogen receptor (Homo sapiens). As to the kind of experiment: Induction of estrogen receptor degradation in human MCF7 cells incubated for 24 hrs by Western blot analysis. The following applies: dose 0.001-10 µM. The series is classed as cell-based.
In series [31] the test system is MCF7. Put plainly: Induction of immunogenic cell death in human MCF7 cells assessed as ATP release […] at 10 uM. In kind it is functional, cell-based.
In series [32] the test system is MCF7. Put plainly: Induction of immunogenic cell death in human MCF7 cells assessed as HSP90 exposure at 10 uM by Western blot analysis. In kind it is functional, cell-based.
The target in series [33] is T1, Estrogen receptor (Homo sapiens). As to the kind of experiment: Induction of estrogen receptor degradation in estradiol-stimulated human MCF7 cells assessed as decrease in PGR mRNA level incubated for 24 hrs by RT-qPCR analysis. In kind it is cell-based. As to conditions: dose 1-10 µM.
The subject of series [34] is MCF7. As to the kind of experiment: Induction of immunogenic cell death in human MCF7 cells assessed as CRT translocation at 10 uM by fluorescence microscopy. In kind it is functional, cell-based.
Series [35] has as its target T1, Estrogen receptor (Homo sapiens). Put plainly: Induction of estrogen receptor degradation in estradiol-stimulated human MCF7 cells assessed as decrease in TFF1 mRNA level incubated for 24 hrs by RT-qPCR analysis. In kind it is cell-based. As to conditions: dose 1-10 µM.
Series [36] deals with MCF7. As to the kind of experiment: Induction of endoplasmic reticulum stress effect in human MCF7 cells assessed as change in CHOP level at 10 uM incubated for 3 to 24 hrs by Western blot analysis. The series is classed as functional, cell-based. The following applies: time 3-24 hrs.
For series [37], the system named is Uterus. As to the kind of experiment: Effect on immature Sprague-Dawley rat uterus assessed as reduction in uterine wet weight at 60 mg/kg, po qd for 2 days by H and E staining based analysis. As to conditions: time 2.0 day. In kind it is functional, organism-based.
Series [38] concerns the target T1, Estrogen receptor (Homo sapiens). As to the kind of experiment: Induction of estrogen receptor degradation in estradiol-stimulated human MCF7 cells assessed as decrease in GREB1 mRNA level incubated for 24 hrs by RT-qPCR analysis. As to conditions: dose 1-10 µM. The series is classed as cell-based.
The subject of series [39] is MCF7. As to the kind of experiment: Induction of endoplasmic reticulum stress effect in human MCF7 cells assessed as change in pEIF-2alpha level at 10 uM incubated for 3 to 24 hrs by Western blot analysis. In kind it is functional, cell-based. The following applies: time 3-24 hrs.
In series [40] the test system is MCF7. Put plainly: Induction of endoplasmic reticulum stress effect in human MCF7 cells assessed as change in EIF-2alpha level at 10 uM incubated for 3 to 24 hrs by Western blot analysis. The series is classed as functional, cell-based. The following applies: time 3-24 hrs.
Series [41] concerns MCF7. Put plainly: Antitumor activity against human MCF7 cells xenografted in nude mouse model assessed as reduction in Ki67 level at 60 mg/kg, po administered daily via gavage for 30 days in presence of ribociclib by IHC analysis. The series is classed as functional, organism-based. The following applies: time 30.0 day.

As to `C[C@]12CC[C@@H]3c4ccc(O)cc4C[C@@H](CCCCCCCCC[S+]([O-])CCCC(F)(F)C(F)(F)F)[C@H]3[C@@H]1CC[C@@H]2O` (stereo partly specified) [FULVESTRANT], in series [1], the outcome was inactive. Besides, the result in series [2] and in series [6] was Active. Also, the inhibition at 20 µM in [3] is -3.19%. Moreover, the Activity in series [4] was determined as 66.83%. The compound further came in with an IC50 in [5] of 0.000646 µM.
For the compound `CCc1cc(/C=C/C(=O)O)ccc1Oc1c(C(=O)c2ccccc2CC)cnc2cc(O)ccc12`, the outcome in series [7], in series [9], in series [10], in series [2], in series [12] and in series [13] was Active. The outcome in [14], in [18], in series [19], in [21], in [22] and in series [23] was Active. Further, the result in series [24], in series [25], in [26], in series [27], in [31] and in [32] was Active. Also, the outcome in series [34], in series [36], in series [39], in series [40] and in series [41] was Active. For the same compound, the Activity result is “Non-Toxic” in [8]; “Non-Toxic” in series [11]; “Non-Toxic” in series [15]; “Non-Toxic” in series [17]; 64% in [4]; “Non-Toxic” in [28]. In addition, the Activity result in series [30], in series [33], in [35] and in [38] was “Dose-Dependent Effect” in each case. The result in series [1], in series [20], in series [29] and in [37] was inactive. In addition, the inhibition at 20 µM in series [3] came out at 13.2%. Besides, the inhibition entry in series [16] is “Active”. The same compound returned an IC50 in [5] of 0.51 µM.

The record behind these values is ChEMBL document CHEMBL5584239, “Discovery of novel quinoline scaffold selective estrogen receptor degraders (SERDs) for treatment of ER positive breast cancer with enhanced antiproliferative bioactivity through immunogenic cell death (ICD) effects” (Eur J Med Chem, 2024).
